Literature values, collected in patent US20160243146A1, “LEVIA : A New Injectable Parasiticidal Veterinary Formulation of Levamisole HCl and Ivermectin Solution” (priority 2015, published 2016).

Columns and labels:
[1] = dissolved in propylene glycol solvent

Substance: Ivermectin
- period of release into the blood [1]: up to 14 days
- solubility in water (room temperature): about 0.005 mg per ml
- stability in water (water): unstable in water
